In article PMC10810434, “Thymoquinone-protoflavone hybrid molecules as potential antitumor agents” (PLOS ONE, 2024):
Where two headings read alike, the source gives them in different places.

Tests used:
HeLa = assay: In vitro antiproliferative MTT assay on HeLa; type: cell-based, human; settings: up to 72 hours, mean of two independent measurements with three replicates each, read-out: Calculated IC50 ± SEM, HeLa
Text: (§1) Gynecological cancer cell lines of human origin including breast cancer like the triple negative MDA-MB-231 and estrogen receptor positive MCF-7, […] cervical adenocarcinoma (HeLa), and human glioblastoma (U-87) cell lines were used as in vitro models to study the antiproliferative effects of the evaluated compounds. All cell lines were cultivated in T-75 flasks in a minimal essential medium (MEM) supplemented with 10% heat-inactivated fetal bovine serum (FBS), 1% antibiotic-antimycotic mixture (penicillin-streptomycin-amphotericin B) and 1% non-essential amino acids. Non-cancerous human lung fibroblast cell line (MRC-5) was maintained in low glucose Dulbecco’s Modified Eagle Medium (DMEM) supplemented with 20% heat-inactivated FBS, 1% antibiotic-antimycotic mixture and 4 mM L-glutamine. The cells were incubated at 37°C in 5% CO^2 incubator. The cells were seeded in 96-well plates at a density of 5 x 10^3 in 100 μL per well, except for the U-87 and MRC-5 that were seeded at 1 x 10^4 density and incubated at the same conditions for overnight to allow the cells’ attachment to the well’s bottom before the treatment.
(§2) The compounds were dissolved in dimethyl sulfoxide (DMSO) as 10 mM standard stock solutions and kept at -20°C with minimum light exposure. Immediately before each experiment, the stock solution was used and diluted with a culture medium to get the final concentrations. The values of half-maximal inhibitory concentration (IC50) were determined by exposure of the cells into eight different concentrations of each tested compound (0.39, 0.78, 1.56, 3.125, 6.25, 12.5, 25 and 50 μM). Temozolomide (TMZ) and cisplatin were used as positive controls in the case of U-87 and the gynecological cell lines, respectively. The negative control wells included the cells with only MEM treatment. The plates were incubated for up to 72 hours under the same abovementioned incubation conditions. The colorimetric MTT assay was used to assess the compounds’ effect on cell proliferation. Briefly, 20 μL of MTT solution ([3-(4,5-dimethylthiazol-2-yl)-2,5-diphenyltetrazolium bromide], 5 mg/mL in PBS, Duchefa Biochemie BV, Haarlem, The Netherlands) was added to each well including the negative controls and kept under the usual incubation circumstances for additional four hours. Subsequently, the media was carefully aspirated and 100 μL of DMSO was added to each well and the plates were gently shaken for 30 min to solubilize the precipitated crystals of purple formazan. Absorbance was measured at a wavelength of 545 nm using a microplate UV-VIS reader (SPECTROstar Nano, BMG Labtech GmbH, Offenburg, Germany). The same procedure was performed using MRC-5 cells to determine the cancer selectivity of the most promising test compounds.
(§3) Cell viability data were collected from two separate experiments in triplicates and evaluated using GraphPad Prism 9.5.1 (GraphPad Software Inc., San Diego, CA, USA). The half-maximal inhibitory concentration (IC50) values were determined using the log inhibitor vs normalized response nonlinear regression model. Difference between the IC50 values of a hybrid and its corresponding fragments’ experimental combination was statistically evaluated using unpaired T-test. Cancer selectivity of the most promising test compounds was characterized by calculating and comparing their selectivity index (SI). The value of the parameter derives from the ratio of IC50 value of test compound on MRC-5 cells and that on U-87 cells. The higher the value, the better the cancer selectivity of the test compound.

MCF-7 = assay: In vitro antiproliferative MTT assay on MCF-7; type: cell-based, human; settings: mean of two independent measurements with three replicates each, read-out: Calculated IC50 ± SEM, MCF-7
Text: as §1, §2, §3

U-87 glioblastoma cells = assay: In vitro antiproliferative MTT assay on U-87; type: cell-based, human
Text: as §1, §2, §3

MDA-MB-231 = assay: In vitro antiproliferative MTT assay on MDA-MB-231; type: cell-based, human; settings: mean of two independent measurements with three replicates each, read-out: Calculated IC50 ± SEM, MDA-MB-231
Text: as §1, §2, §3

[1] = tested on: MRC-5 non-cancerous human lung fibroblast cell line; assay: In vitro antiproliferative MTT assay on MRC-5 (cancer selectivity); type: cell-based; settings: for IC50: MRC5, Table 3, non-cancerous human lung fibroblasts, read-out: Calculated IC50 ± SEM, MRC-5; for Selectivity index SI = IC50 (MRC-5)/IC50 (U-87): MRC-5 vs U-87
Text: as §1, §2, §3

[2] = tested on: MDA-MB-231, MCF-7, HeLa, U-87; assay: In vitro antiproliferative MTT assay, cancer cell line panel; type: cell-based; settings: Homo sapiens; all tested cancer cell lines; read-out: IC50 values against cancer cells (range over cell lines)
Text: Gynecological cancer cell lines of human origin including breast cancer like the triple negative MDA-MB-231 and estrogen receptor positive MCF-7, […] cervical adenocarcinoma (HeLa), and human glioblastoma (U-87) cell lines were used as in vitro models to study the antiproliferative effects of the evaluated compounds. All cell lines were cultivated in T-75 flasks in a minimal essential medium (MEM) supplemented with 10% heat-inactivated fetal bovine serum (FBS), 1% antibiotic-antimycotic mixture (penicillin-streptomycin-amphotericin B) and 1% non-essential amino acids. […]
The compounds were dissolved in dimethyl sulfoxide (DMSO) as 10 mM standard stock solutions and kept at -20°C with minimum light exposure. […] Absorbance was measured at a wavelength of 545 nm using a microplate UV-VIS reader (SPECTROstar Nano, BMG Labtech GmbH, Offenburg, Germany). […]
Cell viability data were collected from two separate experiments in triplicates and evaluated using GraphPad Prism 9.5.1 (GraphPad Software Inc., San Diego, CA, USA). The half-maximal inhibitory concentration (IC50) values were determined using the log inhibitor vs normalized response nonlinear regression model. Difference between the IC50 values of a hybrid and its corresponding fragments’ experimental combination was statistically evaluated using unpaired T-test. […]

U-87 cells = assay: Combination assay: equimolar fragment mixtures vs hybrids on U-87; type: cell-based, human; settings: for Hybrid vs corresponding 1:1 fragment mixture, antiproliferative activity in words: U-87 cells
Procedure: as §2
Combination study was performed by treating cells with equimolar mixtures of the abovementioned fragments or their hybrids, and corresponding cell viability data were comparatively evaluated. In this bioassay, at least two separate experiments were performed, each in triplicate. The dataset was then subjected to appropriate statistical analysis. The calculated IC50 values were subsequently employed to quantitatively assess the extent of pharmacological benefit obtained through the hybridization of fragments in comparison to the cytotoxic effect produced by the experimental combination of PA or its derivatives and TQ fragments.
as §3

[3] = Homo sapiens, MCF7, up to 72 hours
[4] = Homo sapiens, MTT, up to 72 hours, mean of two independent measurements with three replicates each, read-out: Calculated IC50 ± SEM, U-87
[5] = Homo sapiens, MDA-MB-231, up to 72 hours
[6] = Homo sapiens, Table 3, U-87 glioblastoma, read-out: Calculated IC50 ± SEM, U-87 (Table 3)

SMILES	IC50 (HeLa; Homo sapiens, HeLa) [µM]	IC50 (MCF-7; [3]) [µM]	IC50 (U-87 glioblastoma cells; [4]) [µM]	IC50 (MDA-MB-231; [5]) [µM]	IC50 (U-87 glioblastoma cells; [6]) [µM]	IC50 [2] [µM]	IC50 [1] [µM]	Selectivity index SI = IC50 (MRC-5)/IC50 (U-87) [1]	Hybrid vs corresponding 1:1 fragment mixture, antiproliferative activity in words (U-87 cells)	Fold stronger activity of hybrid than 1:1 mixture of its fragments (U-87 cells; U-87 glioblastoma cells, hybrid vs mixture of fragments 4 and 6)	IC50 (HeLa) [µM]	IC50 (MCF-7; up to 72 hours) [µM]	IC50 (U-87 glioblastoma cells; MTT, up to 72 hours, mean of two independent measurements with three replicates each, read-out: Calculated IC50 ± SEM, U-87) [µM]	IC50 (MDA-MB-231; up to 72 hours) [µM]
CC1=CC(=O)C(C(C)C)=CC1=O [Compound 2, 2-isopropyl-5-methylcyclohexa-2,5-diene-1,4-dione]	> 100	24 ± 1.37	39.1 ± 3.53	7.02 ± 0.17										
CCCCOC1(c2cc(=O)c3c(O)cc(OC(=O)CCC4=C(C)C(=O)C=C(C(C)C)C4=O)cc3o2)C=CC(=O)C=C1 [Compound 13, 2-(1-butoxy-4-oxocyclohexa-2,5-dien-1-yl)-5-hydroxy-4-oxo-4H-chromen-7-yl 3-(5-isopropyl-2-methyl-3,6-dioxocyclohexa-1,4-dien-1-yl)propanoate]	1.4 ± 0.25	1.68 ± 0.16	3.43 ± 0.25	0.99 ± 0.05										
CC1=CC(=O)C(C(C)C)=C(CCC(=O)O)C1=O [Compound 4, 3-(2-isopropyl-5-methyl-3,6-dioxocyclohexa-1,4-dien-1-yl)propanoic acid]	> 100	> 100	88.7 ± 5.17	12.4 ± 0.37	88.7 ± 5.17		40.2 ± 1.04							
O=C1C=CC(O)(c2cc(=O)c3c(O)cc(O)cc3o2)C=C1 [Compound 6, Protoapigenone]	1.8 ± 0.09	0.66 ± 0.06	1.73 ± 0.11	0.57 ± 0.07	1.73 ± 0.11		2.62 ± 0.2	1.51						
CCCCOC1(c2cc(=O)c3c(O)cc(OC(=O)CCC4=C(C(C)C)C(=O)C=C(C)C4=O)cc3o2)C=CC(=O)C=C1 [Compound 17, 2-(1-butoxy-4-oxocyclohexa-2,5-dien-1-yl)-5-hydroxy-4-oxo-4H-chromen-7-yl 3-(2-isopropyl-5-methyl-3,6-dioxocyclohexa-1,4-dien-1-yl)propanoate]	3.08 ± 0.46	2.7 ± 0.09	8.65 ± 1.15	1.08 ± 0.08										
CC1=C(CCC(=O)O)C(=O)C(C(C)C)=CC1=O [Compound 3, 3-(5-isopropyl-2-methyl-3,6-dioxocyclohexa-1,4-dien-1-yl)propanoic acid]	> 100	> 100	77.7 ± 1.61	38.2 ± 2.81										
N.N.[Cl][Pt][Cl] [Cis, cisplatin, reference compound]											16 ± 2	6.55 ± 0.77	9.13 ± 1.79	9.71 ± 0.51
CCOC1(c2cc(=O)c3c(O)cc(O)cc3o2)C=CC(=O)C=C1 [Compound 8]	2.83 ± 0.12	2.5 ± 0.11	1.73 ± 0.06	1.22 ± 0.03	1.73 ± 0.06		3.79 ± 0.25	2.19						
Cn1nnc2c(C(N)=O)ncn2c1=O [TMZ, temozolomide, reference compound]			388 ± 43		388 ± 43		1090 ± 45.1	2.82						
CCCCOC1(c2cc(=O)c3c(O)cc(O)cc3o2)C=CC(=O)C=C1 [Compound 9]	1.88 ± 0.1	2.01 ± 0.07	1.5 ± 0.12	0.82 ± 0.05	1.5 ± 0.12		3.56 ± 0.12	2.37						

Second part, led by results:

IC50 (HeLa; Homo sapiens, HeLa) [µM]	IC50 (MCF-7; [3]) [µM]	IC50 (U-87 glioblastoma cells; [4]) [µM]	IC50 (MDA-MB-231; [5]) [µM]	IC50 (U-87 glioblastoma cells; [6]) [µM]	IC50 [2] [µM]	SMILES	IC50 [1] [µM]	Selectivity index SI = IC50 (MRC-5)/IC50 (U-87) [1]	Hybrid vs corresponding 1:1 fragment mixture, antiproliferative activity in words (U-87 cells)	Fold stronger activity of hybrid than 1:1 mixture of its fragments (U-87 cells; U-87 glioblastoma cells, hybrid vs mixture of fragments 4 and 6)	IC50 (HeLa) [µM]	IC50 (MCF-7; up to 72 hours) [µM]	IC50 (U-87 glioblastoma cells; MTT, up to 72 hours, mean of two independent measurements with three replicates each, read-out: Calculated IC50 ± SEM, U-87) [µM]	IC50 (MDA-MB-231; up to 72 hours) [µM]
1.06 ± 0.08	1.2 ± 0.03	1.16 ± 0.2	0.52 ± 0.02	1.16 ± 0.2	0.51 to 1.2	CC1=CC(=O)C(C(C)C)=C(CCC(=O)Oc2cc(O)c3c(=O)cc(C4(O)C=CC(=O)C=C4)oc3c2)C1=O [Compound 14, 5-hydroxy-2-(1-hydroxy-4-oxocyclohexa-2,5-dien-1-yl)-4-oxo-4H-chromen-7-yl 3-(2-isopropyl-5-methyl-3,6-dioxocyclohexa-1,4-dien-1-yl)propanoate]	5.1 ± 0.21	4.40	synergism	ca. three				
5.51 ± 0.21	3.95 ± 0.3	7.03 ± 0.11	2.23 ± 0.13			COC1(c2cc(=O)c3c(O)cc(O)cc3o2)C=CC(=O)C=C1 [Compound 7]								
1.71 ± 0.16	4.11 ± 0.34	6.06 ± 0.4	1.98 ± 0.06			CCOC1(c2cc(=O)c3c(O)cc(OC(=O)CCC4=C(C(C)C)C(=O)C=C(C)C4=O)cc3o2)C=CC(=O)C=C1 [Compound 16, 2-(1-ethoxy-4-oxocyclohexa-2,5-dien-1-yl)-5-hydroxy-4-oxo-4H-chromen-7-yl 3-(2-isopropyl-5-methyl-3,6-dioxocyclohexa-1,4-dien-1-yl)propanoate]			no apparent difference					
6.78 ± 0.28	5.44 ± 1.32	18.9 ± 3.42	3.53 ± 0.17			COC1(c2cc(=O)c3c(O)cc(OC(=O)CCC4=C(C(C)C)C(=O)C=C(C)C4=O)cc3o2)C=CC(=O)C=C1 [Compound 15, 5-hydroxy-2-(1-methoxy-4-oxocyclohexa-2,5-dien-1-yl)-4-oxo-4H-chromen-7-yl 3-(2-isopropyl-5-methyl-3,6-dioxocyclohexa-1,4-dien-1-yl)propanoate]			no apparent difference					
3.51 ± 0.17	2.66 ± 0.11	7.63 ± 0.46	2.25 ± 0.13			COC1(c2cc(=O)c3c(O)cc(OC(=O)CCC4=C(C)C(=O)C=C(C(C)C)C4=O)cc3o2)C=CC(=O)C=C1 [Compound 11, 5-hydroxy-2-(1-methoxy-4-oxocyclohexa-2,5-dien-1-yl)-4-oxo-4H-chromen-7-yl 3-(5-isopropyl-2-methyl-3,6-dioxocyclohexa-1,4-dien-1-yl)propanoate]			synergism					
2 ± 0.26	1.65 ± 0.07	6.16 ± 0.49	1.27 ± 0.04			CC1=C(CCC(=O)Oc2cc(O)c3c(=O)cc(C4(O)C=CC(=O)C=C4)oc3c2)C(=O)C(C(C)C)=CC1=O [Compound 10]								
2.35 ± 0.15	3.21 ± 0.07	8.22 ± 0.73	2.15 ± 0.08			CCOC1(c2cc(=O)c3c(O)cc(OC(=O)CCC4=C(C)C(=O)C=C(C(C)C)C4=O)cc3o2)C=CC(=O)C=C1 [Compound 12, 2-(1-ethoxy-4-oxocyclohexa-2,5-dien-1-yl)-5-hydroxy-4-oxo-4H-chromen-7-yl 3-(5-isopropyl-2-methyl-3,6-dioxocyclohexa-1,4-dien-1-yl)propanoate]								
